From publication PMC12535076, “Neurotherapeutic effects of Vutiglabridin as a Paraoxonase-2 modulator in preclinical models of Parkinson’s disease” (Molecular Neurodegeneration, 2025)
Where two headings read alike, the source gives them in different places.

What was measured:
[1] = Quantification of drug concentration in plasma and brain of mice (LC-MS/MS); type: in vivo, C57BL/6J mice; details: mouse
Experimental: Male C57BL/6J mice (8 weeks old, n = 24, non-fasted; Charles River Japan (CRJ), OrientBio, Seongnam, Korea) were dosed with 50 mg/kg of Vuti once and sacrificed at 0, 1, 2, 4, 6, 8, 10, 24 h time point (n = 3 per time point). Their whole blood was collected via the vena cava in a heparin-coated syringe and their whole brain was collected after perfusion with 0.9% saline. Vuti was quantified in both plasma and brain samples using LC-MS/MS analysis. This study was performed in accordance with the Association for Assessment and Accreditation of Laboratory Animal Care International (AAALAC; Approval No. LCDI-2021-0027).
LC-MS/MS analysis to quantify Vuti used previously set conditions. Briefly, HPLC-ESI-MS/MS analyses were performed using a 1200 series HPLC system (Agilent Technologies, Wilmington, DE) coupled to 6490 Accurate-Mass Triple Quadrupole Mass Spectrometer (Agilent Technologies, Wilmington, DE). Mass detection was performed in the positive ion mode, and the column temperature was maintained at 40 °C using a thermostatically controlled column oven. The column used for the separation was Hypersil GOLD C18 column (2.1 × 100 mm ID; 1.9 μm, Thermo Science). The mobile phases consisted of 0.1% acetic acid in distilled water (solvent A) and 0.1% acetic acid in ACN: MeOH = 3:1 (v/v) (solvent B). The LC gradient was as follows: 0–3 min, B 20%; 3–5 min, B 20 − 80%; 5–8 min, B 80%; 8–10 min, B 80 − 20%; and 10–15 min, B 20%. The flow rate was 250 µL/ min, and the total run time was 15 min. For multiple reaction monitoring (MRM) analyses, the target transition used was 355.1/151.0 m/z for Vuti. The collision energy was 17 V and nitrogen was used as the desolvation gas at a flow rate of 11 L/min and at 300 °C. Skyline software (MacCoss Laboratory, University of Washington, Seattle, WA) was used to process the LC-MS/MS data.

MAO-A [2] = target: T1, MAO-A (Homo sapiens, UniProt P21397); experiment: HRP/Amplex red based MAO-A enzyme activity assay; type: biochemical; details: read-out: IC50, MAO-A assay, HRP/AR method
T1 sequence (P21397 1-527): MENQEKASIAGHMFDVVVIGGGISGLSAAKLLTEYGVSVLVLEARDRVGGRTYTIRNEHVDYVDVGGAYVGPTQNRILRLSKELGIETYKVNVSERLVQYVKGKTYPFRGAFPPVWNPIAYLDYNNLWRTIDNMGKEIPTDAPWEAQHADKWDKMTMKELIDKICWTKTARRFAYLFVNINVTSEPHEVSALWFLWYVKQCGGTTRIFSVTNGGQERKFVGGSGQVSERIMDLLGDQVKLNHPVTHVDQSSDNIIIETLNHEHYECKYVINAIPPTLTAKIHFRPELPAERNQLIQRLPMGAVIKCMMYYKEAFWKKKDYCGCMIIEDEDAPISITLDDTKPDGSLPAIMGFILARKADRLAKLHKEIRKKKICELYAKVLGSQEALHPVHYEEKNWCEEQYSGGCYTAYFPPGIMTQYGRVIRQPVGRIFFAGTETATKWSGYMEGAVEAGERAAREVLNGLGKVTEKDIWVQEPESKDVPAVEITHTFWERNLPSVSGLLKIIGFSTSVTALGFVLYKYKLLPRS
Experimental: MAO-A or MAO-B enzyme solutions were prepared by diluting 10 µL of a 2.5 mg/mL MAO-A or MAO-B stock into 10 mL of 50 mM sodium phosphate buffer (pH 7.4). A substrate assay mixture was then prepared by combining benzylamine (for MAO-B) or tyramine (for MAO-A) from a 100 mM stock (200 µL in 10 mL phosphate buffer, final concentration 1 mM) with 100 µL of a 20 mM AR reagent stock (final concentration 0.1 mM) and 100 µL of a 200 U/mL HRP stock (final concentration 1 U/mL) in 10 mL phosphate buffer. […] Next, 50 µL of the substrate assay mixture was added, and the reaction was carried out at 37 °C for 60 min. The production of resorufin was quantified by fluorescence measurement (excitation at 540 nm and emission at 580 nm).

MAO-A [3] = target: T1, MAO-A; experiment: ROS Glo based MAO-A enzyme activity assay; type: biochemical; details: printed as 'separate MAO-B assay' within the MAO-A panel (b); read-out: IC50, ROS-Glo method, panel (b)
Experimental: An enzyme solution was prepared by diluting 10 µL of a 2.5 mg/mL MAO-A or MAO-B stock in 10 mL of 50 mM sodium phosphate buffer (pH 7.4). A substrate solution was prepared by diluting 200 µL of a 100 mM benzylamine (or tyramine) stock in 10 mL phosphate buffer to achieve a final concentration of 1 mM. For each 96-well plate experiment, 12.5 µL of a 1× H2O2 probe solution was added to 1 mL of the probe dilution buffer from the ROS Glo™ kit. Separately, 40 µL of cysteine and enhancer were diluted into 4 mL of Luciferin solution. In each well, 49 µL of the enzyme solution was dispensed, followed by 1 µL of the test compound, and incubated for 30 min. Then, 49 µL of the substrate solution was added, and the reaction proceeded at 37 °C for 60 min. Next, 10 µL of the H2O2 probe solution was added and incubated for 15 min. Subsequently, 40 µL of a luciferin solution containing cysteine and an enhancer was added, followed by an additional 30-minute incubation at 37 °C. Luminescence was subsequently recorded using a microplate luminescence reader (SpectraMax i3, Molecular Devices).

For CCOc1ccc(C2COc3c(ccc4c3CCC(C)(C)O4)C2)c(O)c1 (stereo not drawn) [Vuti, Vutiglabridin], the Kp at 6 h ([1]; male, C57BL/6J, brain / plasma, oral, single 50 mg/kg, at Tmax of 6 h, read-out: brain concentration relative to plasma) was 2.7, the Kp ([1]; male, C57BL/6J, brain / plasma, single oral 50 mg/kg, read-out: brain relative to plasma by AUC24h) was 2.6 and the concentration at 6 h ([1]; male, C57BL/6J, brain, single oral 50 mg/kg, at Tmax of 6 h, read-out: concentration in brain) was 4030 ng/g. It also gave a Tmax ([1]; male, C57BL/6J, plasma, single oral 50 mg/kg) of 6 h, a concentration at 6 h ([1]; male, C57BL/6J, plasma, single oral 50 mg/kg, at Tmax of 6 h, read-out: concentration in plasma) of 1490 ng/mL and an AUC(0-t) ([1]; male, C57BL/6J, plasma, single oral 50 mg/kg, read-out: AUC24h in plasma) of 16100 ng·h/mL. The AUC24h in brain ([1]; single oral 50 mg/kg) was 42.5 µg·h/g, the IC50 (MAO-A [2]) was 288 µM and the IC50 (MAO-A [3]) was 24.7 µM.
